# Laboratory results from patent US20070161691A1, “Modified-protein formation inhibitor” (TOKAI UNIVERSITY, priority 2003, published 2007).
# What was measured:
# [1] = Absorbability examination, oral administration to rat; format: in vivo; conditions: 50 mg/kg oral
# Description: For 4-(5-phenyltetrazol-1-yl methyl)-morpholine (compound 1) and (5-phenyltetrazol-1-yl)methanol (compound 3), their sorbability were examined. Each compounds are suspended in carboxymethyl cellulose in given concentration to prepare sample for oral administration. Then each samples were administered in the ratio of 50 mg/kg to rat using sonde. Five Wister rats (male, 8 weeks aged, closed colony) were used every one group. At one hour, 2 hours, 6 hours and 24 hours after the administration of compound, blood was obtained. The obtained blood samples were immediately cetrifuged at 3000 rpm for 15 minutes to obtain the blood plasma and the concentration of the compound in the specimen was quantitated by HPLC. Briefly, to 100 μL of obtained blood plasma was added to 200 μL of acetonitrile, centrifuged at 12000 rpm for 10 minutes to obtain supernatant, deproteinized and served to HPLC. The measuring condition of HPLC was selected from suitable condition for each compounds to separate and quantify. For example, in case of 4-(5-phenyltetrazol-1-yl methyl)-morpholine (compound 1), separated with reverse-phase C18 column (4.6×250 mm, 5 μm: Waters), and then detected using ultraviolet detector (RF-10A: Shimazu Seisakusho) at 240 nm of wavelength to quantify. In mobile phase, the flow rate is 0.8 mL/min and solvent is water: acetonitrile.
# [2] = Acute toxicity examination, single oral administration to mouse; conditions: male, in vivo, ICR mice, single oral administration
# Description: (§1) For 4-(5-phenyltetrazol-1-ylmethyl)-morpholine (compound 1) and (5-phenyltetrazol-1-yl) methanol (compound 3), acute toxicity test was carried out using mice. Each compounds were suspended in carboxymethyl cellulose in given concentration to prepare sample for oral administration. Then single oral administration was done to mouse. The dose is 100, 250, 500, 1000 and 2000 mg/kg. Five ICR mice (male , 8 weeks aged, closed colony) were used in each group. The test material was administrated to determine LD50 value.
# [3] = system: ICR mice; assay: as above; conditions: in vivo, po
# Description: as §1
# [4] = system: middle cerebral artery ischemia-reperfusion model; assay: Cerebroprotective action in middle cerebral artery ischemia-reperfusion model; format: in vivo, rat; conditions: after reperfusion 22 hrs
# [5] = Vitamin B6 (PLP; pyridoxal phosphate) trapping; format: biochemical; conditions: 500 μM compound, 50 μM PLP, PBS
# Description: To a solution of vitamin B6, the compound of this invention is added, and after a certain period of time, an amount of vitamin B6 remained is determined.
# 4-(5-phenyltetrazol-1-ylmethyl)-morpholine (Compound 1), 5-methyl-1-(5-phenyltetrazol-1-ylmethyl)-3a,6a-dihydro-1H-pyrrolo[3,4-d][1,2,3]triazol-4,6-dione (Compound 2) and (5-phenyltetrazol-1-yl)methanol (Compound 3) as well as aminoguanidine as the positive control were each dissolved in DMSO in a designed concentration to make a sample solution. DMSO itself was used as the negative control. In addition, pyridoxal phosphate (PLP) was dissolved in purified-water to make a designed concentration. PBS was added to each of the test compound, the positive control and the negative control, to make a final concentration of 500 μM. The PLP solution as above prepared was added to each of the resultant solution to make a final concentration of 50 μM for preparation of the PLP reaction solution. Using HPLC, the amount of PLP in the PLP reaction solution was determined after 0.1 and 10 hours, from which the PLP trapping amount of each test compound was ascertained.
# The analysis of PLP using HPLC was carried out by separation with reverse-phase C18 column (4.6×250 mm, 5 μm; Waters) and by using a fluorescence detector (RF-10A; Shimazu Seisakusho; excitation wavelength, 300 nm and fluorescence wavelength, 400 nm). In the mobile phase, the flow rate was 0.6 mL/min and the concentration of buffer B was varied from 0% to 3% in 25 minutes (buffer A: 0.10% trifluoroacetic acid; buffer B: 80% acetonitrile containing 0.08% trifluoroacetic acid).
# [6] = system: middle cerebral artery ischemia-reperfusion model; assay: Cerebroprotective action in middle cerebral artery ischemia-reperfusion model; format: in vivo, rat; conditions: for cerebral infarction nest: dosed 5 minutes and 5 hours after occlusion
# Description: CD(SD)IGS male rats (Japan Charles River Kabushiki […], Hino farm, room No. 22, specific product) (8 rats per one group) having body weight 270 to 350 g were anesthetized by 2% isoflurane (mixed bas comprising of 70% N2O (laughter gas) and 30% O2) to immobilize, and then the rats were put on warming plate to keep the rectal and brain temperature 37 to 38° C. After that, to observe the stability in the examination, canula which was made by polyethylene (PE-50, Becton Dickinson) was inserted and left in caudal artery of said animal, and this made blood drawing and blood pressure determining to monitor the biochemical parameter such as blood sugar level, hematocrit, CO2 concentration, oxygen partial pressure, pH, blood pressure and etc. In addition, cerebral blood flow in cortex was determined by laser doppler […] (Neuroscience.inc: OMEGA FLOW (FLO-C1)), putting the detection site directly on cranium on the point left 4 mm from bregma. Left neck of such animal was incised, and from internal and external carotid fork of common carotid artery to upstream of internal carotid, nylon surgical thread (length 16 mm, diameter 0.2 to 0.3 mm, with silicon coating on its tip 3 mm) was passed and left, middle cerebral artery was obstructed for 2 hours. After that, the thread was removed to release the middle cerebral artery, and blood was reperfused for 21 hours. To each animals, 3.0 mg/kg of 3-methyl-1-phenyl 2-pyrazolin-5-one (control, hereinafter referring to edaravone) and 4.23 mg/kg of 4-(5-phenyltetrazol-1-ylmethyl)-morpholine (compound 1) (test compound, hereinafter referring to TM-3001) were respectively administered twice by cannula which is left in caudal artery 5 minutes and 5 hours after middle cerebral artery occlusion. After said operation, the brain was removed from said animal, and after preparing 7 brain slices with 2 mm thickness, to TTC stain (0.8 g of 2,3,5-triphenyltetrazolium chloride (Sigma) dissolved in 40 ml of saline) were soaked at 37° C. for 15 minutes to stain, and fixed by 10% neutral formalin liquid to prepare specimen. Such specimens were created the image by CCD camera respectively, and analysed according to method of Swanson et al. (J Cereb Blood Flow Metab 10:290-293; […]). […] Furthermore, function recovering was estimated before and after the operation by rotor rod test that estimates how much they can walk on rotating rotor.
# [7] = comparing to diluent single administration
compound,measurement,setting,value
"c1ccc(-c2nnnn2CN2CCOCC2)cc1 [Compound 1, 4-(5-phenyltetrazol-1-ylmethyl)-morpholine]",sorbability (plasma concentration after oral administration),[1],good sorbability
same,LD50,[2],> 1000 mg/kg
same,toxicity,[3],lower toxicity
same,"Nervous condition estimation test, Ave (Bederson grade)",[4],1.8
same,PLP trapping,[5],none
same,"Nervous condition estimation test, Ave (Bederson grade)",[6]; after occlusion 10 min,2.4
same,"Nervous condition estimation test, Ave (Bederson grade)",[6]; after occlusion 2 hrs,2.9
same,"Nervous condition estimation test, Ave (Bederson grade)",[6]; after reperfusion 10 min,2.6
same,"Nervous condition estimation test, Ave (Bederson grade)",[6]; after reperfusion 3 hrs,2.4
same,"Nervous condition estimation test, Ave (Bederson grade)",[6]; after reperfusion 4 hrs,2.5
same,"rotor rod test, Ave (count from rotor rod machine)",[6]; before occlusion,300.0
same,improvement for nervous condition,[6]; [7],remarkably shown
same,"recovering the function, rotor rod test",[6]; [7],remarkably shown
same,cerebral infarction nest,[6]; [7],reduction of the cerebral infarction nest
same,cerebral infarction nest,"[6]; comparing to diluent single administration, listed as TM-3001",significantly reduced
same,"rotor rod test, Ave (count from rotor rod machine)",[6]; reperfusion,64.8
same,"rotor rod test, ratio to before occlusion (%), Ave",[6]; reperfusion vs before occlusion,21.6%
